In patent US8076449B2, “Therapeutic agents of colivelin for neurodegenerative diseases” (Tomohiro Chiba, priority 2004, dated 2011):
Entries after “also recorded” stand apart in the source; their conditions may differ. Ends that are not written are not given here.

Assays:
[1] = system: primary cultured cortical neurons treated with Aβ (1-43); assay: Neuronal cell death induced by Aβ (1-43) peptide, WST-8 and calcein cell viability assays; assay type: cell-based, mouse
Description: (ii) Test of Neuronal Cell Death Induced by Aβ (1-43) Peptide
Mouse cortical neurons were primarily cultured on a poly-D-lysine-coated 96-well plate (Sumitomo Bakelite, Akita, Japan) in the absence of serum and the presence of N2 […] according to the previous report (Sudo et al., 2000, Mol. Cell. Neurosci., 16: 708-723). The purity of the neurons by this method was 98% or more. The prepared neurons (5.0×10^4 cells/well, 100 μl of medium/well) were cultured for 72 hours in the presence or absence of varying concentrations (100 aM, 1 fM, 10 fM, 100 fM, 1 pM, 10 pM, 100 pM, 1 nM, 10 nM, or 100 nM) of colivelin or AGA-C8R-HNG17 peptide. Since primary cultured neurons temporarily become fragile during medium replacement, the neurons were treated with 25 μM Aβ as follows: at first, a half volume (50 μl) of the old medium was discarded. Next, 50 μM Aβ and 50 μl of prewarmed fresh medium containing varying concentrations of colivelin or AGA-CBR-HNG17 peptides were added to the culture. Aβ (1-43) was purchased from Peptide Institute. The Aβ peptides used at the concentration of 25 μM for inducing neuronal cell death formed aggregation in the medium during 72-hour cell culture at 37° C. (Hashimoto Y, et al., 2001, J Neurosci 21: 9235-9245).
WST-8 cell viability assay was conducted with Cell Counting Kit-8 according to the previous report (Hashimoto Y, et al, 2001, Proc Natl Acad Sci USA 98: 6336-6341).
Calcein assay was conducted with calcein-AM (Dojindo, Kumamoto, Japan) according to the previous report (Hashimoto Y, et al., 2001, J Neurosci 21: 9235-9245).
These assays were simultaneously performed. After 72 hours of the Aβ treatment, the cells were added to a mixture of 10 μl of WST-8 solution and 1 μl of 600 μM calcein-AM and cultured at 37° C. for 2 hours in a CO2 incubator to measure a WST-8 absorption at O.D. 450. To decrease background, the medium was replaced by phosphate-buffered saline, followed by the measurement of calcein-specific fluorescence (excitation: 485 nm, emission: 535 nm) by fluorescence microcopy or with a spectrofluorometer (Wallac 1420 ARVOsx Multi Label Counter; Perkin Elmer, Wellesley, Mass., USA).

[2] = system: F11 cells transformed with M146L-PS1; assay: M146L-PS1-induced neuronal cell death in the presence of ADNF, Trypan blue exclusion assay; assay type: cell-based, rat/mouse hybrid; details: for concentration completely suppressing M146L-PS1-induced cell death in the presence of ADNF: in the presence of 100 nM ADNF, 72 hours
Description: The protective effect of colivelin and ADNF used together against neuronal cell death induced by M146L-PS1 was examined. F11 cells were transformed with M146L-PS1 in the presence or absence of […] and treated with varying concentrations (100 aM, 1 fM, 10 fM, 100 fM, 1 pM, 10 pM, 100 pM, 1 nM, 10 nM, or 100 nM) of colivelin or AGA-C8R-HNG17.
After 72 hours of the transformation, cell mortality was measured by Trypan blue exclusion assay (FIG. 4). Approximately 50% of the neuronal cells died after the transformation with mutant PS1 gene, whereas only 10% of the untreated or empty vector-transformed cells died. […] When the M146L-PS1-transformed neuronal cells in the presence of 100 nM ADNF were treated with 10 pM colivelin, the neuronal cells died at a rate equal to that of the untreated (No) or empty vector (vec)-transformed cells.

G93A-SOD1 Tg mice = assay: In vivo effect on ALS mice: onset, survival, rotarod (Example 5); set-up: species or system mouse
Description: Mice treated with a control (n=16), ADNF (n=15), AGA-C8R-HNG17 (n=14), or colivelin (n=13) were compared by the Kaplan-Meier life test. In addition, the average day of death was compared (FIG. 8c), wherein statistical analysis was conducted by one-way ANOVA, followed by Fischer's PLSD test (**p<0.01). The motor function was evaluated by a rotarod test (FIG. 8d). Mice icy-administered with a control (n=13), ADNF (n=14), AGA-C8R-HNG17 (n=14), or colivelin (n=12) were placed onto a rotating rod at a speed of 5 rpm and observed over max 420 seconds, wherein statistical analysis was conducted by repeatedly measured ANOVA and Fischer's PLSD test.
Cannulas were fixed under aseptic conditions to the left lateral ventricles of G93A-SOD1 Tg mice (ALS model mice, 70-day-old). Colivelin ([…] in 3 μl of saline per two days) was icy-injected through the cannulas to compare its protective effect with those of the same amount of ADNF and AGA-C8R-HNG17 (FIG. 8).
The 1-onset (FIG. 8a) and survival (FIG. 8b) of mice treated with a control (n=16), ADNF (n=15), AGA-C8R-HNG17 (n=14), or colivelin (n=13) were compared by the Kaplan-Meier life test. As a result, the colivelin-treated group completely delayed ALS onset up to approximately 114 days, as compared with the ADNF-treated group (approximately 106 days) and the AGA-C8R-HNG17-treated group (approximately 108 days). Regarding survival as well, the colivelin-treated group prolonged the life span of 100% of the mice up to approximately 145 days, as compared with the ADNF-treated group (approximately 133 days) and the AGA-CBR-HNG17-treated group (approximately 138 days). Average age at death was longest in the colivelin-treated mice and was approximately 153 days (FIG. 8c).
Additionally, the motor function was evaluated by the rotarod test (FIG. 8d). Mice treated with a control (n=13), ADNF (n=14), AGA-C8R-HNG17 (n=14), or colivelin (n=12) were placed onto a rotating rod at a speed of 5 rpm and observed over max 420 seconds, wherein statistical analysis was conducted by ANOVA and Fischer's PLSD test.

[3] = 10 μmol in 3 μl of saline per two days, icv
[4] = Aβ (1-43)-induced neuronal cell death

“PAGASRLLLLTGEIDLP [AGA-C8R-HNG17, Pro-Ala-Gly-Ala-Ser-Arg-Leu-Leu-Leu-Leu-Thr-Gly-Glu-Ile-Asp-Leu-Pro, reference compound]” was tested, and the “concentration achieving complete protection” value ([1]; 25 μM Aβ (1-43), 72 hours) was 10000 fM, the EC50 ([1]; 25 μM Aβ (1-43), 72 hours, WST-8, read-out: concentration at which half of the neurons were rescued) was 1 pM and the “concentration completely suppressing M146L-PS1-induced cell death in the presence of ADNF” value [2] was 10 pM. The “ALS onset completely delayed up to (Kaplan-Meier)” value (“ALS onset completely delayed up” below) (G93A-SOD1 Tg mice; [3]) was “approximately 108 days” and the “life span of 100% of the mice prolonged up to (Kaplan-Meier survival)” value (G93A-SOD1 Tg mice; [3]) was “approximately 138 days”.

For SALLRSIPA [ADNF, reference compound], the “concentration achieving complete protection” value ([1]; 25 μM Aβ (1-43), 72 hours) was 100 fM, the “concentration at or over which protective activity attenuated” value ([1]; Aβ (1-43) toxicity) was ≥ 1 nM and the “effect of ADNF itself on cell death” value ([2]; 100 nM ADNF alone) was “Neither general cell death nor M146L-PS1-induced neuronal cell death was affected”. The “ALS onset completely delayed up” value (G93A-SOD1 Tg mice; [3]) was “approximately 106 days” and the “life span of 100% of the mice prolonged up to (Kaplan-Meier survival)” value (G93A-SOD1 Tg mice; [3]) was “approximately 133 days”.

With SALLRSIPAPAGASRLLLLTGEIDLP [colivelin] the “concentration achieving complete protection” value ([1]; 25 μM Aβ (1-43), 72 hours) was 100 fM, the “potency relative to AGA-C8R-HNG17” value [1, 4] was 100 fold and the “potency relative to HNG” value [1, 4] was 100,000 fold. For the same sequence, the “protective activity at high concentration” value ([1]; at 100 nM) was “did not disappear”, the “activity level with 100 nM ADNF relative to that without ADNF” value ([2]; M146L-PS1, 10 pM with ADNF versus without) was 1/100 and the “concentration completely suppressing M146L-PS1-induced cell death in the presence of ADNF” value [2] was 10 pM. For the same sequence, the “ALS onset completely delayed up” value (G93A-SOD1 Tg mice; [3]) was “approximately 114 days”, the “average age at death” value (G93A-SOD1 Tg mice; [3]) was “approximately 153 days” and the “life span of 100% of the mice prolonged up to (Kaplan-Meier survival)” value (G93A-SOD1 Tg mice; [3]) was “approximately 145 days”. For the same sequence, the “motor function by rotarod test” value (G93A-SOD1 Tg mice; 5 rpm, max 420 seconds, icv treatment) was “ameliorated most; also recorded: significantly better”.
